According to US6491953B1, “Controlled release compositions and method” (Amcol International Corporation, priority 1999, dated 2002):

Experiments:
Assay type in all cases: physicochemical
[1] = Adsorption / entrapment of solid and liquid materials on POLYPORE E 200 microparticles (Example 1); details: adsorbed on microparticles of Example 1 (POLYPORE E 200)
Text: The adsorbent polymer microparticles made by the suspension polymerization technique include at least two polyunsaturated monomers, preferably allyl methacrylate and an ethylene glycol dimethacrylate, and, optionally, monounsaturated monomers. The microparticles are characterized by being open to their interior, due to either particle fracture upon removal of a porogen after polymerization or to subsequent milling. […] In a preferred embodiment, the broken sphere microparticles are characterized by a mean unit diameter from about 1 to about 50 microns, more preferably from about 1 to about 25 microns, most preferably, from about 1 to about 20 microns.
The copolymer powder of Example 1 was mixed with zinc pyrithione (solids having a particle size of 3 to 5 microns slurried in water) in an amount of 12 grams of slurry per one gram of the copolymer, then dried in an oven at 80° C. to evaporate water. […] Zinc pyrithione was supplied by Ruetger Nease Company, as mixture of 48% of zinc pyrithione, 51% water, and 1% zinc chloride, and is used as antidandruff component in hair care products, e.g., antidandruff shampoos.
The copolymer of Example 1 was loaded with a methanol/salicylic acid solution in an amount of 12 grams per gram, and dried in an oven at 80° C. to evaporate the methanol. […] Salicylic acid is an antiseptic and antifungal agent.
Retinol was dissolved in same amount of ether. The solution (5.5 grams) was adsorbed on 1 gram of the adsorbent polymer of Example 1. […] Usually retinol is in the form of sticky crystals, is light sensitive, and is skin irritant. Retinol is used in cosmetic formulations and as a vitamin.

[2] = Adsorption / entrapment of solid and liquid active agents on POLYPORE L 200 microparticles (Example 2); details: adsorbed on microparticles of Example 2 (POLYPORE L 200)
Protocol: The copolymer of Example 2 was loaded with a methanol/salicylic acid solution to an amount of 12 grams per gram, and dried in an oven at 80° C. to evaporate methanol. The resulting dry product was a white, fine powder, with […] entrapped salicylic acid, i.e., 2.8 grams per gram.
Retinol was dissolved in an equal weight amount of ether, then 5.5 grams of the solution was adsorbed on 1 gram of the adsorbent polymer of Example 2. Thereafter, ether was evacuated under vacuum, and a free-flowing light yellow powder was obtained. The adsorbed amount of retinol was 2.75 grams per gram, i.e., 73%. Usually, retinol is in form of sticky crystals, is light sensitive, and a skin irritant.
The microparticles of Example 2 (POLYPORE™ L 200) also had various other solid and liquid active agents adsorbed thereto, as shown in Table 2: […]

[3] = Stability (discoloration) of ascorbic acid compositions added to water
Protocol: The stability of the three compositions was tested by adding individual portions of the three compositions to water at 25° C. and at 45° C. A control solution of 1-ascorbic acid in water discolored after four hours at 45° C. and after five days at room temperature. […] A polymer-ascorbic acid solution, without the addition of a release retardant, also discolored during the test. Accordingly, a release retardant protects and stabilizes an active agent adsorbed onto an adsorbent polymer.

Compound	Total (g/g) adsorbed [1] [g/g]	Total (g/g) adsorbed [2] [g/g]	Free-Flowing (g/g) adsorbed [1] [g/g]	Free-Flowing (g/g) adsorbed [2] [g/g]	time after which solution discolored ([3]; in water at 45° C.)	time after which solution discolored ([3]; in water at room temperature)
Oc1cc(Cl)ccc1Oc1ccc(Cl)cc1Cl [IRGASAN DP 300, 5-chloro-2-(2,4-dichlorophenoxy)phenol]	10.0	10.7	–	–	–	–
CC(=O)Oc1c(C)c(C)c2c(c1C)CCC(C)(CCC[C@H](C)CCC[C@H](C)CCCC(C)C)O2 (stereo partly shown) [Vitamin E Acetate]	7.2	9.2	5.6	7.0	–	–
Cyclomethicone [Cyclomethicone (DC 244)]	12.0	15.0	9.6	10.8	–	–
COc1ccc(C(=O)c2ccccc2)c(O)c1 [Benzophenone-3]	12.3	12.8	9.2	9.1	–	–
OCC(O)CO [Glycerin]	8.0	10.0	6.0	7.6	–	–
CCCCCCCCCCCCCC(=O)OC(C)C [Isopropyl Myristate]	10.7	11.4	8.0	9.5	–	–
CC(=O)OCc1ccccc1 [Benzyl Acetate]	12.3	12.7	10.2	9.9	–	–
O=C1O[C@H]([C@@H](O)CO)C(O)=C1O [1-ascorbic acid]	–	–	–	–	four	five
